The text below walks through data of patent US11771663B2, “Epinephrine spray formulations” (HIKMA PHARMACEUTICALS USA INC., priority 2015, dated 2023).

Series [1] is described as follows: Mini-pig pharmacokinetics, single-dose crossover, plasma epinephrine by LC-MS/MS. The format is in vivo, Yucatan mini-pigs. The following applies: male, Yucatan, 0.3 mg per animal, minipig, single-dose intramuscular (IM), read-out: geometric mean plasma concentration of epinephrine. Here is the method:
Protocol design was a single-dose crossover study. Five healthy male Yucatan mini-pigs weighing approximately eighty to ninety-five kilograms each were administered epinephrine formulations. The minipigs were fasted overnight till four hours' post administration. Each dosing was followed by a washout period of at least one-week. Blood samples were taken prior to administration and 2, 5, 10, 15, 20, 30, 45 min, 1, 1.5, 2, 4, and 24 hours' post dose. Minipig plasma samples were measured for epinephrine concentrations via liquid chromatography-tandem mass spectrometry.

Series [2] can be described thus: Rabbit pharmacokinetics, single-dose non-crossover, plasma epinephrine by LC-MS/MS. The format is in vivo, New Zealand white rabbits. The following applies: male, New Zealand white, intramuscular, 0.03 mg per animal, single-dose IM. Here is the method:
Protocol design was a single-dose non-crossover study. Pharmacokinetics of a number of epinephrine formulations were evaluated in healthy male New Zealand white rabbits weighing approximately two to three kilograms. For dosing of each formulation, five or six rabbits were used. The rabbits were fasted overnight till four hours' post administration. Blood samples were taken prior to administration and 5, 10, 15, 20, 30, 40 min, 1, 1.5, 2, 4, and 5 hours' post dose. Rabbit plasma samples were measured for epinephrine concentrations via liquid chromatography-tandem mass spectrometry. Formulation #R9 existed as a spray-dried powder of epinephrine bitartrate salt. For the evaluation of #R9, approximately 21.83 mg of powder was dosed to each animal, as an equivalent dose of 12 mg epinephrine.

Take `CNC[C@H](O)c1ccc(O)c(O)c1` [epinephrine, Epinephrine]: the figures for the concentration at 5 min in series [1] and in series [2] were 0.046 ng/mL and 0.988 ng/mL, respectively.
